Test results reported in patent US20120283332A1 (OHIO UNIVERSITY, priority 2009, published 2012).

Assays:
[1] = oral; cited from earlier work
DM2 = conditions: oral metformin
[2] = cited from earlier work
Type 2 diabetes = conditions: human, in vivo
Excerpt: They had recently stopped all diabetic medications due to side effects. They wished to stay off insulin due to the risk of gaining weight.
Labs: Hgb A1C 11.2%, Total Cholesterol: 159, Triglycerides: 284, HDL: 32, LDL: 70
The patient was not on any diabetic medications due to intolerable gastrointestinal side effects. […] It was decided that an alternative drug delivery mechanism would be appropriate. […] The patient was educated on the usage of the gel, how to apply the gel and potential side effects. The patient was to contact the physician if any adverse effects occurred. […] The patient was to follow-up in one month.
The patient stated that there had been no lifestyle changes.
Lipids were collected with results of total cholesterol: 119, triglycerides: 209, HDL: 29, LDL: 48.
They were interested in trying a medication that will cover their through the evening to get their BS to 200 mg/dL in the morning. They were concerned with anything that will cause them to gain weight.

Row | Compound | absorption time [1] [h] | BS readings (DM2; before it was stopped) | side effects leading to stopping (DM2; stopped 3 months prior to visit) | patients experiencing a gastrointestinal side effect ([2]; oral metformin, anorexia, nausea, vomiting, abdominal discomfort, diarrhea) | patients discontinuing therapy due to side effects ([2]; oral metformin) | patients developing vitamin B12 deficiency ([2]; patients taking metformin) [%] | tolerability of previously tried diabetic medications (Type 2 diabetes)
1 | CN(C)C(=N)N=C(N)N [metformin] | 6 | improved | severe gastrointestinal side effects | Up to 20% | up to 5% | 77 | unable to tolerate
2 | CCc1ccc(CCOc2ccc(CC3SC(=O)NC3=O)cc2)nc1 (stereo not drawn) [pioglitazone] | – | – | – | – | – | – | unable to tolerate
3 | N[C@@H](CC(=O)N1CCn2c(nnc2C(F)(F)F)C1)Cc1cc(F)c(F)cc1F [sitagliptin] | – | – | – | – | – | – | unable to tolerate
